Results from US20130012506A1 (priority 2010, published 2013).

Tests used:
[1] = test system: M. tuberculosis H37Rv; format: cell-based, Mycobacterium tuberculosis
[2] = test system: M. tuberculosis clinical isolates; format: cell-based, Mycobacterium tuberculosis; settings: multi-drug-resistant and extensive-drug-resistant isolates

With O=c1c(CO)c(Nc2cccc(Cl)c2)nc2c(F)cccn12 [compound 264, 2-(3-Chlorophenylamino)-9-fluoro-3-(hydroxymethyl)-4H-pyrido[1,2-a]pyrimidin-4-one] the spontaneous mutational rate [1] was 7×10^−7.
With Cc1cccn2c(=O)c(C=O)c(Nc3cccc(Cl)c3)nc12 [compound 133, 2-(3-Chlorophenylamino)-9-methyl-4-oxo-4H-pyrido[1,2-a]pyrimidine-3-carbaldehyde] the “MIC values for MDR-TB and XDR-TB isolates strains” value [2] was “within the micromolar range”.
In the case of NNC(=O)c1ccncc1 [INH, isoniazid], the Frequency of resistance [1] is reported as 2.9×10^−6.
